SMILES strings stand for the structures.

The target of this test is T1, Purified ERAP1 (37-941)-10His (ERAP1) (Homo sapiens, UniProt Q9NZ08).
T1 construct: Purified ERAP1 (37-941)-10His (ERAP1)
T1 sequence (Q9NZ08 37-941): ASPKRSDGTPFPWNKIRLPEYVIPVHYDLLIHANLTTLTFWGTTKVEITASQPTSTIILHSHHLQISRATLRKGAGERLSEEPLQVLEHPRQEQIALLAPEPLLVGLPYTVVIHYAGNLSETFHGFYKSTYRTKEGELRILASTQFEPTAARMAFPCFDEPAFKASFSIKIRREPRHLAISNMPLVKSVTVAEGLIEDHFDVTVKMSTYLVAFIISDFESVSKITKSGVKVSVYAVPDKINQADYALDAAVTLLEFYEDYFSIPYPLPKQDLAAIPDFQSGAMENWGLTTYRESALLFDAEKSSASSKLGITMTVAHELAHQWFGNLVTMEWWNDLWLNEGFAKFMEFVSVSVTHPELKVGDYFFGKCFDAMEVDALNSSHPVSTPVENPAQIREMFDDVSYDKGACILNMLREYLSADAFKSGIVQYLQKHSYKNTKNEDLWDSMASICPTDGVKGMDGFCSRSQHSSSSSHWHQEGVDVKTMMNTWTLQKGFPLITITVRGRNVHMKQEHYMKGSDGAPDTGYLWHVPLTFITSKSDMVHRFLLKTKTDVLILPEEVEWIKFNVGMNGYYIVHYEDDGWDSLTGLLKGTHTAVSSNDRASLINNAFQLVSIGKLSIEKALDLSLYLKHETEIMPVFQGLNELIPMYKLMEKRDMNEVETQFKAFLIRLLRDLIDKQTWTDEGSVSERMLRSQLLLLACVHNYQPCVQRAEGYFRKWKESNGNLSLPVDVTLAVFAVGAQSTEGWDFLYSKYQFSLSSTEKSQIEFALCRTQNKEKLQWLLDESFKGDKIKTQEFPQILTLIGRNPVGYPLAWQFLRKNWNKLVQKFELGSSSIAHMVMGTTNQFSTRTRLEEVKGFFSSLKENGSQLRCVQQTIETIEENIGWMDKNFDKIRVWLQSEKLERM
In words: ERAP1 mediated hydrolysis of an amide substrate (10-mer inhibition assay), biochemical system. Particulars: 10-mer substrate, 23° C., 1 h, excitation 279 nm / emission 355 nm; read-out: IC50 vs Decapeptide WRVYEKC(Dnp)ALK-acid (where Dnp is Dinitrophenyl maleimide) (10-mer). The method, then: However, as ERAP1 hydrolyses the N-terminal amide bond and tryptophan is released this internal quenching is lost and the reaction is monitored by the increase in tryptophan fluorescence over the course of the assay. For the purposes of this application this assay is referred to as the “10mer inhibition assay” and compound potencies are calculated and expressed as IC50 as would be familiar to a person skilled in the art.
Biological Assay 1: ERAP1 Mediated Hydrolysis of an Amide Substrate Measured in a Biochemical System
Decapeptide WRVYEKC(Dnp)ALK-acid (where Dnp is Dinitrophenyl maleimide) (10-mer) L-Leucine 7-amido-4-methylcoumarin (L-AMC)
12.5 μL ERAP1 enzyme in 1×AB was combined with 250 nL test compound in DMSO. […] For detection, plates were read at excitation 365 nm and emission 442 nm (L-AMC) or excitation 279 nm and emission 355 nm (10-mer).
Turning to `COc1ccc(C(=O)O)cc1S(=O)(=O)Nc1cc(C(F)(F)F)ccc1N1CCC2(CC1)OCc1ccccc12` [Example 33, 3-(N-(2-(spiro[isobenzofuran-1,4′-piperidin]-1′-yl)-5-(trifluoromethyl)phenyl)sulfamoyl)-4-methoxybenzoic acid], the concentration for half-maximal inhibition (IC50) is under 0.5 µM.

Regarding `COc1ccc(C(=O)O)cc1S(=O)(=O)Nc1cc(C(F)(F)F)ccc1N1CCN(C(C)=O)CC1` [Example 34, 3-(N-(2-(4-acetylpiperazin-1-yl)-5-(trifluoromethyl)phenyl)sulfamoyl)-4-methoxybenzoic acid], the IC50 is over 5 µM. With `COc1ccc(C(=O)O)cc1S(=O)(=O)Nc1cc(C(F)(F)F)ccc1N1CCC(O)CC1` [Example 35, 3-(N-(2-(4-hydroxypiperidin-1-yl)-5-(trifluoromethyl)phenyl)sulfamoyl)-4-methoxybenzoic acid], the half-inhibitory concentration (IC50) is under 0.5 µM. Next, `COc1ccc(C(=O)O)cc1S(=O)(=O)Nc1cc(C(F)(F)F)ccc1N1CCC(O)C1` (centres unmarked) [Example 36, 3-(N-(2-(3-hydroxypyrrolidin-1-yl)-5-(trifluoromethyl)phenyl)sulfamoyl)-4-methoxybenzoic acid]: under 5 µM; `COc1ccc(C(=O)O)cc1S(=O)(=O)Nc1cc(C(F)(F)F)ccc1N1CC(O)C1` [Example 37, 3-(N-(2-(3-hydroxyazetidin-1-yl)-5-(trifluoromethyl)phenyl)sulfamoyl)-4-methoxybenzoic acid]: under 5 µM.

In the case of `COc1ccc(C(=O)O)cc1S(=O)(=O)Nc1cc(C(F)(F)F)ccc1N1CCC(C)(C)C1` [Example 39, 3-(N-(2-(3,3-dimethylpyrrolidin-1-yl)-5-(trifluoromethyl)phenyl)sulfamoyl)-4-methoxybenzoic acid], the 50% inhibitory concentration (IC50) was under 5 µM.

On to `COc1ccc(C(=O)O)cc1S(=O)(=O)Nc1cc(C(F)(F)F)ccc1N1CCN2CCC[C@@H]2C1` [Example 40, (R)-3-(N-(2-(hexahydropyrrolo[1,2-a]pyrazin-2(1H)-yl)-5-(trifluoromethyl)phenyl)sulfamoyl)-4-methoxybenzoic acid], for which the IC50 was under 5 µM. For `COc1ccc(C(=O)O)cc1S(=O)(=O)Nc1cc(C(F)(F)F)ccc1N1CCCCC1=O` [Example 41, 4-methoxy-3-(N-(2-(2-oxopiperidin-1-yl)-5-(trifluoromethyl)phenyl)sulfamoyl)benzoic acid], the 50% inhibitory concentration (IC50) was under 0.5 µM. In the case of `Cc1ccc(C(=O)O)cc1S(=O)(=O)Nc1cc(C(F)(F)F)ccc1N1CCCOCC1` [Example 42, 3-(N-(2-(1,4-oxazepan-4-yl)-5-(trifluoromethyl)phenyl)sulfamoyl)-4-methylbenzoic acid], the IC50 was over 5 µM. As for `CCc1ccc(C(=O)O)cc1S(=O)(=O)Nc1cc(C(F)(F)F)ccc1N1CCCOCC1` [Example 43, 3-(N-(2-(1,4-oxazepan-4-yl)-5-(trifluoromethyl)phenyl)sulfamoyl)-4-ethylbenzoic acid], the half-inhibitory concentration (IC50) was under 0.5 µM. Next, `COc1ccc(C(=O)O)cc1S(=O)(=O)Nc1cc(C(F)(F)F)ccc1N1CCCC1c1cc(C)no1` (centres unmarked) [Example 46, 4-methoxy-3-(N-(2-(2-(3-methylisoxazol-5-yl)pyrrolidin-1-yl)-5-(trifluoromethyl)phenyl)sulfamoyl)benzoic acid]: under 5 µM; `COc1ccc(C(=O)O)cc1NS(=O)(=O)c1cc(C(F)(F)F)ccc1N1CCCCC1` [Example 49, 4-methoxy-3-((2-(piperidin-1-yl)-5-(trifluoromethyl)phenyl)sulfonamido)benzoic acid]: under 0.5 µM; `COc1ccc(C(=O)O)cc1NS(=O)(=O)c1cc(C(F)(F)F)ccc1N(C)C` [Example 51, 3-((2-(dimethylamino)-5-(trifluoromethyl)phenyl)sulfonamido)-4-methoxybenzoic acid]: under 0.5 µM. Turning to `COc1ccc(C(=O)O)cc1NS(=O)(=O)c1cc(C(F)(F)F)ccc1N1CCOCC1` [Example 52, 4-methoxy-3-((2-morpholino-5-(trifluoromethyl)phenyl)sulfonamido)benzoic acid], the IC50 is under 5 µM.

The values are drawn from US12485169B2, “Compounds” (GREY WOLF THERAPEUTICS LIMITED, priority 2018, dated 2025).
